Consider 17 compounds from US9555038B2, “Heterocycle-substituted tetracyclic compounds and methods of use thereof for the treatment of viral diseases” (Merck Sharp & Dohme Corp., priority 2013, dated 2017).

Where two headings read alike, the source gives them in different places.

The IC50 is the concentration needed to halve the response being measured.

One experiment deals with HCV replicon 2B. In words: Cell-based HCV Replicon Assay A, replicon 2B. Summed up: (§1)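 Replicon cells seeded at 2000 cells/well with compound, 10 serial dilutions starting at 333.3 nM to 1.667 nM, 0.5% DMSO, 5% FBS, harvested on day 3. Replicon RNA measured by multiplex TaqMan RT-PCR with cyclophilin as endogenous control, quantified from standard curves of Ct vs log ng RNA.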
In general terms: In antiviral work, replicon cells carry a viral genome segment that copies itself.

For a further experiment, the system named is HCV replicon 1B. In words: Cell-based HCV Replicon Assay B, replicon 1B. Summed up: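 Replicon cells seeded in 5% FBS; compounds added 24 h later, then 3 days' incubation. Replicon RNA quantified by real-time RT-PCR with genotype-specific primers/probes (NS5B amplicon for 1b). EC50 = concentration raising CT by 1 over projected baseline.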
A further experiment deals with HCV replicon 1A. As to the kind of experiment: Cell-based HCV Replicon Assay A, replicon 1A. Put shortly:
as §1

For the next experiment, the system named is HCV replicon 1AQ30D. As to the kind of experiment: Cell-based HCV Replicon Assay B, replicon 1AQ30D. The procedure: In an alternate assay (“Replicon Assay B”), 1000 cells were seeded per well in a 384-well collagen coated black plate from Greiner bio-one (Cat #781946) in 5% FBS. Inhibitors of this invention were added at 24 h post-seeding, and the plates were incubated for 3 days. Cells were subsequently lysed with Qiagen lysis buffer (Cat #1062731) to extract the RNA. HCV replicon RNA level was measured by real-time PCR using the RNA-to-CT kit from Applied Biosystem (Cat #4392656) and genotype-specific primers and probes. The amplicon was located within NS5B. The sequence of the PCR primers are as follows: 5B.2F, ATGGACAGGCGCCCTGA (SEQ. ID NO. 1); 5B.2R, […] (SEQ. ID NO. 2); the probe sequence was FAM-labeled CACGCCATGCGCTGCGG (SEQ. ID NO. 3). To detect genotype 1A the primer 1A F, TGCGGAACCGGTGAGTACA and 1A R, […] were used; the probe sequence was FAM-[…].
The real-time RT-PCR reactions were run on ABI PRISM 7900HT or Viia7 Sequence Detection System using the following program: 48° C. for 30 minutes, 95° C. for 10 minutes, 40 cycles of 95° C. for 15 sec, 60° C. for 1 minutes. The 50% effective concentration (EC50) was the drug concentration necessary to achieve an increase in the cycle threshold (CT) of 1 over the projected baseline CT.
Data was obtained for various compounds of the present invention using the methods described in the Example above, and is presented in the table immediately below. Data for replicons 1A, 1AY93H and 2B were obtained using Replicon Assay A and data for replicons 1AQ30D and 1B were obtained using Replicon Assay B.

Another experiment deals with HCV replicon 1AY93H. As to the kind of experiment: Cell-based HCV Replicon Assay A, replicon 1AY93H. Summed up:
as §1

Where [1] appears, read: Hepatitis C virus, read-out: 2B IC50 (nM), replicon 2B.
[2] abbreviates: Hepatitis C virus, read-out: 1A Q30D IC50 (nM), replicon 1AQ30D.
The mark [3] stands for this setting: Hepatitis C virus, read-out: 1A Y93H IC50 (nM), replicon 1AY93H.
Setting [4] is: read-out: 1A Y93H IC50, replicon 1AY93H.
Setting [5] is: read-out: 1A Q30D IC50, replicon 1AQ30D.

For `COC(=O)N[C@H](C(=O)N1CCC[C@H]1c1ncc(-c2cc(F)c3c(c2)OC(c2cnc(-c4cccnc4)s2)n2c-3cc3cc(-c4cnc([C@@H]5CCCN5C(=O)[C@@H](NC(=O)OC)C(C)C)[nH]4)ccc32)[nH]1)C(C)C` (mixture of isomers) [Compound 422], the IC50 is 35.2 nM in the experiment on HCV replicon 2B (setting [1]), 0.015 nM in the experiment on HCV replicon 1B (Hepatitis C virus), 0.021 nM in the experiment on HCV replicon 1A (Hepatitis C virus) and 1.67 nM with HCV replicon 1AQ30D (setting [2]).

Turning to `COC(=O)N[C@H](C(=O)N1CCC[C@H]1c1ncc(-c2cc(F)c3c(c2)OC(c2cnc(C4(C)CCOCC4)s2)n2c-3cc3cc(-c4cnc([C@@H]5CCCN5C(=O)[C@@H](NC(=O)OC)C(C)C)[nH]4)ccc32)[nH]1)C(C)C` (mixture of isomers) [Compound 456], the IC50 in the experiment on HCV replicon 2B (setting [1]) amounted to 0.316 nM; in the experiment on HCV replicon 1AY93H (setting [3]), 0.021 nM; with HCV replicon 1B (Hepatitis C virus) it was 0.0027 nM; in the experiment on HCV replicon 1AQ30D (setting [2]), 0.559 nM.

As for `COCc1ncc(C2Oc3cc(-c4cnc([C@@H]5CCCN5C(=O)[C@@H](NC(=O)OC)C(C)C)[nH]4)cc(F)c3-c3cc4cc(-c5cnc([C@@H]6CCCN6C(=O)[C@@H](NC(=O)OC)C(C)C)[nH]5)ccc4n32)s1` (single isomer, unassigned) [Compound 18], the IC50 with HCV replicon 2B (read-out: 2B IC50, replicon 2B) is 0.016 nM; in the experiment with HCV replicon 1AY93H (setting [4]), 0.0069 nM; with HCV replicon 1B, 0.001 nM; with HCV replicon 1AQ30D (setting [2]), 0.072 nM.

Regarding `COC(=O)N[C@H](C(=O)N1CCC[C@H]1c1ncc(-c2cc(F)c3c(c2)OC(c2cnc(C4CC4)s2)n2c-3c(F)c3cc(-c4cnc([C@@H]5CCCN5C(=O)[C@@H](NC(=O)OC)C(C)C)[nH]4)ccc32)[nH]1)C(C)C` (single isomer, unassigned) [Compound 21], the half-maximal inhibitory concentration (IC50) in the experiment with HCV replicon 2B (read-out: 2B IC50, replicon 2B) stood at 0.012 nM; in the experiment with HCV replicon 1AY93H (setting [4]), 0.0177 nM; in the experiment with HCV replicon 1B (Hepatitis C virus), 0.004 nM; with HCV replicon 1AQ30D (setting [2]), 0.494 nM.

For the compound `COC(=O)N[C@H](C(=O)N1CCC[C@H]1c1ncc(-c2cc(F)c3c(c2)OC(c2ncc(-c4ccc(C#N)cc4)s2)n2c-3cc3cc(-c4cnc([C@@H]5CCCN5C(=O)[C@@H](NC(=O)OC)C(C)C)[nH]4)ccc32)[nH]1)C(C)C` (single isomer, unassigned) [Compound 44], the IC50 was 0.054 nM in the experiment with HCV replicon 2B (read-out: 2B IC50, replicon 2B); 0.103 nM in the experiment on HCV replicon 1AY93H (setting [4]); 0.002 nM in the experiment on HCV replicon 1B; 0.778 nM in the experiment on HCV replicon 1AQ30D (setting [5]).

Take `COC(=O)N[C@H](C(=O)N1CCC[C@H]1c1ncc(-c2cc(F)c3c(c2)OC(c2cnc(Oc4ccc(F)cc4)s2)n2c-3cc3cc(-c4cnc([C@@H]5CCCN5C(=O)[C@@H](NC(=O)OC)C(C)C)[nH]4)ccc32)[nH]1)C(C)C` (single isomer, unassigned) [Compound 49]: the IC50 was determined as 0.002 nM in the experiment on HCV replicon 2B (read-out: 2B IC50, replicon 2B); 0.002 nM with HCV replicon 1B (Hepatitis C virus); 0.001 nM in the experiment on HCV replicon 1A (Hepatitis C virus); 0.029 nM with HCV replicon 1AQ30D (setting [5]).

On to `COC(=O)N[C@H](C(=O)N1CCC[C@H]1c1ncc(-c2cc(F)c3c(c2)OC(c2cnc(Oc4ccc(F)cc4)s2)n2c-3cc3cc(-c4cnc([C@@H]5CCCN5C(=O)[C@@H](NC(=O)OC)C(C)C)[nH]4)ccc32)[nH]1)C(C)C` (single isomer, unassigned) [Compound 50], for which the IC50 came out at 0.158 nM in the experiment on HCV replicon 2B (read-out: 2B IC50, replicon 2B); 0.119 nM in the experiment with HCV replicon 1AY93H (setting [4]); 0.001 nM with HCV replicon 1B; 1.22 nM in the experiment with HCV replicon 1AQ30D (setting [5]).

On to `COC(=O)N[C@H](C(=O)N1CCC[C@H]1c1ncc(-c2cc(F)c3c(c2)OC(c2cnc(C(C)C)s2)n2c-3cc3cc(-c4cnc([C@@H]5CCCN5C(=O)[C@@H](NC(=O)OC)C(C)C)[nH]4)ccc32)[nH]1)C(C)C` (single isomer, unassigned) [Compound 86], for which the IC50 in the experiment on HCV replicon 2B (read-out: 2B IC50, replicon 2B) is 0.028 nM; with HCV replicon 1AY93H (setting [3]), 0.0063 nM; with HCV replicon 1B (Hepatitis C virus), 0.002 nM; in the experiment on HCV replicon 1AQ30D (setting [2]), 0.187 nM.

Regarding `COC(=O)N[C@H](C(=O)N1CCC[C@H]1c1ncc(-c2cc(F)c3c(c2)OC(c2nc4c(s2)CCCC4)n2c-3cc3cc(-c4cnc([C@@H]5CCCN5C(=O)[C@@H](NC(=O)OC)C(C)C)[nH]4)ccc32)[nH]1)C(C)C` (single isomer, unassigned) [Compound 88], the IC50 in the experiment with HCV replicon 1A worked out at 0.0028 nM; in the experiment on HCV replicon 1AQ30D (setting [5]) it was 0.415 nM.

For `CCCc1ncc(C2Oc3cc(-c4cnc([C@@H]5CCCN5C(=O)[C@@H](NC(=O)OC)C(C)C)[nH]4)cc(F)c3-c3cc4cc(-c5cnc([C@@H]6C[C@H]7C[C@H]7N6C(=O)C(NC(=O)OC)C6CCOC(C)(C)C6)[nH]5)ccc4n32)s1` (single isomer, unassigned) [Compound 105], the half-maximal inhibitory concentration (IC50) in the experiment with HCV replicon 1AY93H (setting [4]) turned out to be 0.0029 nM; in the experiment with HCV replicon 1B, 0.004 nM; in the experiment on HCV replicon 1A it was 0.0022 nM; in the experiment on HCV replicon 1AQ30D (setting [5]) it was 0.017 nM.

`COC(=O)NC(C(=O)N1CCC[C@H]1c1ncc(-c2ccc3c(c2)cc2n3C(c3cnc(C4CCC4)s3)Oc3cc(-c4cnc([C@@H]5CCCN5C(=O)[C@@H](NC(=O)OC)C(C)C)[nH]4)cc(C)c3-2)[nH]1)C1C[C@@H](C)O[C@H](C)C1` (single isomer, unassigned) [Compound 220]: the IC50 with HCV replicon 1AY93H (setting [3]) turned out to be 0.01 nM; in the experiment with HCV replicon 1B (Hepatitis C virus), 0.005 nM; in the experiment with HCV replicon 1A (Hepatitis C virus), 0.004 nM; in the experiment on HCV replicon 1AQ30D (setting [2]), 0.046 nM.

With `COC(=O)NC(C(=O)N1CCC[C@H]1c1ncc(-c2ccc3c(c2)cc2n3C(c3cnc(C4CC4)s3)Oc3cc(-c4cnc([C@@H]5CCCN5C(=O)[C@@H](NC(=O)OC)C(C)C)[nH]4)cc(F)c3-2)[nH]1)C1C[C@@H](C)O[C@H](C)C1` (single isomer, unassigned) [Compound 305], the IC50 with HCV replicon 1AY93H (setting [4]) was 0.0031 nM; in the experiment on HCV replicon 1B, 0.004 nM; in the experiment on HCV replicon 1A it was 0.003 nM; with HCV replicon 1AQ30D (setting [5]), 0.015 nM.

For the compound `COC(=O)N[C@H](C(=O)N1CCC[C@H]1c1ncc(-c2cc(F)c3c(c2)OC(c2csc(C4CC4)n2)n2c-3cc3cc(-c4cnc([C@@H]5CCCN5C(=O)[C@@H](NC(=O)OC)C(C)C)[nH]4)ccc32)[nH]1)C(C)C` (single isomer, unassigned) [Compound 433], the IC50 in the experiment on HCV replicon 2B (read-out: 2B IC50, replicon 2B) is 0.3 nM; in the experiment on HCV replicon 1AY93H (setting [4]), 0.06 nM; in the experiment with HCV replicon 1B, 0.001 nM; in the experiment on HCV replicon 1AQ30D (setting [2]), 1.6 nM.

Consider `CCCc1ncc(C2Oc3cc(-c4cnc([C@@H]5CCCN5C(=O)[C@@H](NC(=O)OC)C(C)C)[nH]4)cc(F)c3-c3cc4cc(-c5cnc([C@@H]6CCCN6C(=O)[C@@H](NC(=O)OC)C(C)C)[nH]5)ccc4n32)s1` (some centres unmarked) [Compound 16], for which the IC50 in the experiment with HCV replicon 2B (read-out: 2B IC50, replicon 2B) amounted to 0.284 nM; with HCV replicon 1AY93H (setting [4]), 0.083 nM; in the experiment on HCV replicon 1B, 0.001 nM; with HCV replicon 1A, 0.0017 nM.

`COC(=O)N[C@H](C(=O)N1CCC[C@H]1c1nc(-c2cc(F)c3c(c2)OC(c2cnc(C4CCCCC4)s2)n2c-3cc3cc(-c4cnc([C@@H]5CCCN5C(=O)[C@@H](NC(=O)OC)C(C)C)[nH]4)ccc32)c[nH]1)C(C)C` (some centres unmarked) [Compound 415]: the 50% inhibitory concentration (IC50) is 1.43 nM with HCV replicon 2B (setting [1]), 2.88 nM in the experiment with HCV replicon 1AY93H (setting [3]), 0.002 nM in the experiment on HCV replicon 1B (Hepatitis C virus) and 0.0016 nM in the experiment with HCV replicon 1A (Hepatitis C virus).

For `COC(=O)N[C@H](C(=O)N1CCC[C@H]1c1ncc(-c2cc(F)c3c(c2)OC(c2cnc(C4CC4)s2)n2c-3cc3cc(-c4cnc([C@@H]5CC6(C)CC6N5C(=O)[C@@H](NC(=O)OC)C(C)C)[nH]4)ccc32)[nH]1)C(C)C` (some centres unmarked) [Compound 517], the half-maximal inhibitory concentration (IC50) was found to be 0.874 nM in the experiment on HCV replicon 2B (setting [1]), 0.392 nM in the experiment with HCV replicon 1AY93H (setting [3]), 0.0033 nM in the experiment with HCV replicon 1B (Hepatitis C virus) and 0.0017 nM in the experiment on HCV replicon 1A (Hepatitis C virus).

Consider `COC(=O)NC(C(=O)N1C(c2ncc(-c3cc(F)c4c(c3)OC(c3cnc(C5CC5)s3)n3c-4cc4cc(-c5cnc(C6CC7(C)CC7N6C(=O)C(NC(=O)OC)C(C)C)[nH]5)ccc43)[nH]2)CC2(C)CC12)C(C)C` (centres unmarked) [Compound 533], for which the IC50 was determined as 0.0196 nM with HCV replicon 1B; 0.0262 nM in the experiment on HCV replicon 1A; 2.52 nM in the experiment on HCV replicon 1AQ30D (replicon 1AQ30D, read-out: 1A Q30D IC50).
